Measured values published in patent US11666577B2 (National Institute of Biological Sciences, Beijing, priority 2018, dated 2023).
Where two headings read alike, the source gives them in different places.

System: HT-29 cells
Assay: Necroptosis assay (TNF-α/Smac mimetic/z-VAD, TSZ-induced) in HT-29 cells
Type: cell-based, human
Protocol: Methods: HT-29 cells were cultured in McCoy's 5 A culture medium (Invitrogen). On day one, HT-29 cells were plated in 96-well assay plates at density of 2,500-3,500 cells per well. On day two, necrosis were induced by adding 20 ng/ml TNF-α (T), 100 nM Smac mimetic (S), and […] z-VAD (Z). At the same time, 10 mM compound from a chemical library of ˜200,000 compounds was delivered into each well. After 24 hrs treatment, cell viability was determined by measuring ATP level using the Cell Titer-Glo Luminescent Cell Viability Assay kit. A CellTiter-Glo Assay (Promega) was performed according to the manufacturer's instructions. Luminescence was recorded with a PerkinElmer EnSpire Multimode Plate Reader. Survived cells were normalized to those cells treated with DMSO. RIPA-56 was used as a positive control for screening necroptosis inhibitors. Data are represented as mean±standard deviation of duplicates.
In previous work, we performed a cell-based high-throughput screen to identify necroptosis inhibitors using a chemical library of ˜200,000 compounds and identified multiple compounds that protected human colorectal adenocarcinoma (HT-29) cells from TNF-α/Smac mimetic/Z-VAD-fmk (TSZ)-induced necroptosis.^[4]
The anti-necroptosis potency of compounds 7-12 and 14-18 was evaluated in the HT-29 cell line; the EC50 values are shown in Table B.
[a] Necroptosis was induced in HT-29 cells for 24 h; the EC50 values given here are the mean values of at least three independent analyses.

[1] = Series 1 (Table 1) compounds 1-146, HT-29 cells, TNF-α/Smac mimetic/z-VAD, 24 hrs, cell viability by ATP level, read-out: Series 1 compound necroptosis activity
[2] = Homo sapiens, Series 2 (Table 2) compounds, HT-29 necroptosis assay, read-out: Series 2 compound necroptosis activity
[3] = Series 1 (Table 1) compounds 147-176, activity extrapolated, read-out: Series 1 compound necroptosis activity (extrapolated)
[4] = Homo sapiens, Series 1 (Table 1) compounds 1-146, HT-29 cells, TNF-α/Smac mimetic/z-VAD, 24 hrs, cell viability by ATP level, read-out: Series 1 compound necroptosis activity
[5] = Series 1 (Table 1) compounds, HT-29 cells, TNF-α/Smac mimetic/z-VAD, 24 hrs, cell viability by ATP level, read-out: Series 1 compound necroptosis activity

| Structure (SMILES) | EC50 [1] [µM] | EC50 [2] [µM] | also measured |
| --- | --- | --- | --- |
| Cn1c(=O)c2c(nc(S(=O)(=O)Cc3ccc[n+]([O-])c3)n2C)n(C)c1=O [Compound 51, 3-((1,3,7-trimethyl-2,6-dioxo-2,3,6,7-tetrahydro-1H-purin-8-ylsulfonyl)methyl)pyridine 1-oxide] | 1 to 1000 | – | – |
| CSc1nc2c(c(=O)n(C)c(=O)n2C)n1CC(N)=O [Compound 85, 2-(1,3-dimethyl-8-(methylthio)-2,6-dioxo-2,3-dihydro-1H-purin-7(6H)-yl)acetamide] | 1 to 1000 | – | – |
| Cn1c(=O)c2c(nc(S(=O)(=O)CC3CC3)n2C)n(CC#Cc2ccnc(NCC3CC3)c2)c1=O [Compound 34] | – | 0.001 to 0.1 | – |
| Cn1c(=O)c2c(nc(S(C)(=O)=O)n2C)n(CC#Cc2cccc(NC(=O)c3ccccc3)c2)c1=O [Compound 11] | – | 0.001 to 0.1 | – |
| Cn1c(=O)c2c(nc(S(C)(=O)=O)n2C)n(CC#Cc2cc(NC(=O)CN3CCOCC3)cc(NC(=O)C3CC3)c2)c1=O [Compound 36] | – | 0.001 to 0.1 | – |
| Cn1c(=O)c2c(nc(S(C)(=O)=O)n2C)n(CC#Cc2cccc(NCc3ccccc3)c2)c1=O [Compound 13] | – | 0.001 to 0.1 | – |
| C=CC(=O)Nc1cccc(C#CCn2c(=O)n(C)c(=O)c3c2nc(S(=O)(=O)CC2CC2)n3C)c1 [Compound 160] | – | – | EC50 [3]: 1 to 1000 µM |
| Cn1c(=O)c2c(nc(S(=O)(=O)CC3CC3)n2C)n(CC#Cc2ccnc(NC(=O)CN3CCOCC3)c2)c1=O [Compound 32] | – | 0.001 to 0.1 | – |
| Cn1c(=O)c2c(nc([S+](C)[O-])n2C)n(CC#Cc2cc(NC(=O)C3CC3)nc(C(F)(F)F)c2)c1=O (centres unmarked) [Compound 48] | – | 0.1 to 10 | – |
| Cn1c(=O)c2c(nc(S(=O)(=O)CCN)n2C)n(CC#Cc2cccc(O)c2)c1=O [Compound 150] | – | – | EC50 [3]: 1 to 1000 µM |
| CCn1c([S+]([O-])CC)nc2c1c(=O)n(C)c(=O)n2C (centres unmarked) [Compound 76, 7-ethyl-8-(ethylsulfinyl)-1,3-dimethyl-1H-purine-2,6(3H,7H)-dione] | 1 to 1000 | – | – |
| Cn1c(=O)c2c(nc(S(=O)(=O)Cc3ccccn3)n2C)n(C)c1=O [Compound 48, 1,3,7-trimethyl-8-(pyridin-2-ylmethylsulfonyl)-1H-purine-2,6(3H,7H)-dione] | 1 to 1000 | – | – |
| CCCn1c(S(C)(=O)=O)nc2c1c(=O)n(C)c(=O)n2C [Compound 83, 1,3-dimethyl-8-(methylsulfonyl)-7-propyl-1H-purine-2,6(3H,7H)-dione] | 1 to 1000 | – | – |
| Cn1c(=O)c2c(nc(S(C)(=O)=O)n2C)n(CC#Cc2cc(NC(=O)C3CC3)cc(NC(=O)C3CC3)c2)c1=O [Compound 27] | – | 0.001 to 0.1 | – |
| Cn1c(=O)c2c(nc(S(=O)(=O)Cc3cccc[n+]3[O-])n2C)n(C)c1=O [Compound 49, 2-((1,3,7-trimethyl-2,6-dioxo-2,3,6,7-tetrahydro-1H-purin-8-ylsulfonyl)methyl)pyridine 1-oxide] | 1 to 1000 | – | – |
| Cn1c(=O)c2c(nc(S(N)(=O)=O)n2C)n(CC#Cc2cccc(O)c2)c1=O [Compound 156] | – | – | EC50 [3]: 1 to 1000 µM |
| Cn1c(=O)c2c(nc(S(=O)(=O)CCO)n2C)n(CC#Cc2cccc(O)c2)c1=O [Compound 147] | – | – | EC50 [3]: 1 to 1000 µM |
| Cn1c(=O)c2c(nc(S(=O)(=O)CC3CC3)n2C)n(C)c1=O [Compound 13, 8-(cyclopropylmethylsulfonyl)-1,3,7-trimethyl-1H-purine-2,6(3H,7H)-dione] | – | – | EC50 [4]: 1 to 100 µM |
| Cn1c(=O)c2c(nc(S(=O)(=O)Cc3cc(Cl)ccc3Cl)n2C)n(C)c1=O [Compound 55, 8-(2,5-dichlorobenzylsulfonyl)-1,3,7-trimethyl-1H-purine-2,6(3H,7H)-dione] | – | – | EC50 [4]: 1 to 100 µM |
| Cn1c(=O)c2c(nc(S(=O)(=O)CC3CC3)n2C)n(Cc2ccc(Br)cc2)c1=O [Compound 141, 3-(4-bromobenzyl)-8-((cyclopropylmethyl)sulfonyl)-1,7-dimethyl-1H-purine-2,6(3H,7H)-dione] | – | – | EC50 [4]: 1 to 100 µM |
| CN(C)CCOc1cc(C#CCn2c(=O)n(C)c(=O)c3c2nc(S(C)(=O)=O)n3C)cc(NC(=O)C2CC2)c1 [Compound 42] | – | 0.001 to 0.1 | – |
| Cn1c(=O)c2c(nc(S(=O)(=O)CC3CC3)n2C)n(Cc2cccc(F)c2)c1=O [Compound 134, 8-((cyclopropylmethyl)sulfonyl)-3-(3-fluorobenzyl)-1,7-dimethyl-1H-purine-2,6(3H,7H)-dione] | – | – | EC50 [4]: 1 to 100 µM |

| Structure (SMILES) | EC50 [1] [µM] | EC50 [2] [µM] | also measured |
| --- | --- | --- | --- |
| CCNc1cc(C#CCn2c(=O)n(C)c(=O)c3c2nc(S(=O)(=O)CC2CC2)n3C)ccn1 [Compound 33] | – | 0.001 to 0.1 | – |
| Cn1c(=O)c2c(nc(S(=O)(=O)Cc3ccc(Cl)cc3)n2C)n(C)c1=O [Compound 31, 8-(4-chlorobenzylsulfonyl)-1,3,7-trimethyl-1H-purine-2,6(3H,7H)-dione] | 1 to 1000 | – | – |
| CSc1nc2c(c(=O)n(C)c(=O)n2C)n1C [Compound 2, 1,3,7-trimethyl-8-(methylthio)-1H-purine-2,6(3H,7H)-dione] | 1 to 1000 | – | – |
| Cn1c(=O)c2c(nc(S(=O)(=O)Cc3cc[n+]([O-])cc3)n2C)n(C)c1=O [Compound 53, 4-((1,3,7-trimethyl-2,6-dioxo-2,3,6,7-tetrahydro-1H-purin-8-ylsulfonyl)methyl)pyridine 1-oxide] | 1 to 1000 | – | – |
| CCn1c(S(=O)(=O)CC)nc2c1c(=O)n(C)c(=O)n2C [Compound 77, 7-ethyl-8-(ethylsulfonyl)-1,3-dimethyl-1H-purine-2,6(3H,7H)-dione] | 1 to 1000 | – | – |
| CNc1cc(C#CCn2c(=O)n(C)c(=O)c3c2nc(S(=O)(=O)CC2CC2)n3C)ccn1 [Compound 126, 8-((cyclopropylmethyl)sulfonyl)-1,7-dimethyl-3-(3-(2-(methylamino)pyridin-4-yl)prop-2-yn-1-yl)-3,7-dihydro-1H-purine-2,6-dione] | – | – | EC50 [5]: 0.001 to 1 µM |
| CCS(=O)(=O)c1nc2c(c(=O)n(C)c(=O)n2CC#Cc2cc(NC(=O)C3CC3)cc(NC(=O)C3CC3)c2)n1C [Compound 50] | – | 0.001 to 0.1 | – |
| Cn1c(=O)c2c(nc(S(=O)(=O)NCc3ccccc3)n2C)n(C)c1=O [Compound 55] | – | 10 to 100 | – |
| Cn1c(=O)c2c(nc(S(C)(=O)=O)n2C)n(CC#CC2CCCNC2)c1=O (centres unmarked) [Compound 167] | – | – | EC50 [3]: 1 to 1000 µM |
| CCNC(=O)C#CCn1c(=O)n(C)c(=O)c2c1nc(S(C)(=O)=O)n2C [Compound 132, 4-(1,7-dimethyl-8-(methylsulfonyl)-2,6-dioxo-1H-purin-3(2H,6H,7H)-yl)-N-ethylbut-2-ynamide] | 1 to 1000 | – | – |
| CCCOc1ccc(OC)cc1CS(=O)(=O)c1nc2c(c(=O)n(C)c(=O)n2C)n1C [Compound 66, 8-(5-methoxy-2-propoxybenzylsulfonyl)-1,3,7-trimethyl-1H-purine-2,6(3H,7H)-dione] | 1 to 1000 | – | – |
| Cn1c(=O)c2c(nc(S(=O)(=O)Cc3cccc(Cl)c3Cl)n2C)n(C)c1=O [Compound 54, 8-(2,3-dichlorobenzylsulfonyl)-1,3,7-trimethyl-1H-purine-2,6(3H,7H)-dione] | 1 to 1000 | – | – |
| Cn1c(=O)c2c(nc(S(C)(=O)=O)n2C)n(CC#Cc2cc(NC(=O)C3CC3)nc(C(F)(F)F)c2)c1=O [Compound 43] | – | 0.001 to 0.1 | – |
| COc1ccc(Br)c(OC)c1CS(=O)(=O)c1nc2c(c(=O)n(C)c(=O)n2C)n1C [Compound 69, 8-(3-bromo-2,6-dimethoxybenzylsulfonyl)-1,3,7-trimethyl-1H-purine-2,6(3H,7H)-dione] | 1 to 1000 | – | – |
| CCSc1nc2c(c(=O)n(C)c(=O)n2C)n1C [Compound 5, 8-(ethylthio)-1,3,7-trimethyl-1H-purine-2,6(3H,7H)-dione] | 1 to 1000 | – | – |
| Cn1c(=O)c2c(nc(S(=O)(=O)CC3CC3)n2C)n(CC#Cc2cc(NC(=O)C3CC3)nc(C(F)(F)F)c2)c1=O [Compound 45] | – | 0.001 to 0.1 | – |
| Cn1c(=O)c2c(nc(S(=O)(=O)Cc3cccc(C#N)c3)n2C)n(C)c1=O [Compound 43, 3-((1,3,7-trimethyl-2,6-dioxo-2,3,6,7-tetrahydro-1H-purin-8-ylsulfonyl)methyl)benzonitrile] | 1 to 1000 | – | – |
| Cn1c(=O)c2c(nc([S+](C)[O-])n2C)n(CC#Cc2cccc(O)c2)c1=O (centres unmarked) [Compound 8] | – | 0.001 to 0.1 | – |
| Cn1c(=O)c2c(nc(S(=O)(=O)Cc3cccc(Br)c3)n2C)n(C)c1=O [Compound 33, 8-(3-bromobenzylsulfonyl)-1,3,7-trimethyl-1H-purine-2,6(3H,7H)-dione] | 1 to 1000 | – | – |
| Cn1c(=O)c2c(nc(S(=O)(=O)CC3CC3)n2C)n(Cc2cccc(Br)c2)c1=O [Compound 140, 3-(3-bromobenzyl)-8-((cyclopropylmethyl)sulfonyl)-1,7-dimethyl-1H-purine-2,6(3H,7H)-dione] | – | – | EC50 [4]: 1 to 100 µM |
| Cn1c(=O)c2c(nc(S(C)(=O)=O)n2C)n(Cc2cccs2)c1=O [Compound 131, 1,7-dimethyl-8-(methylsulfonyl)-3-(thiophen-2-ylmethyl)-1H-purine-2,6(3H,7H)-dione] | – | – | EC50 [5]: 0.001 to 1 µM |
| CCSc1nc2c(c(=O)n(C)c(=O)n2C)n1CC [Compound 75, 7-ethyl-8-(ethylthio)-1,3-dimethyl-1H-purine-2,6(3H,7H)-dione] | 1 to 1000 | – | – |
